Measured values taken from patent US20240180914A1, “ORAL GEL COMPOSITION AND USE THEREOF” (DR. KURT WOLFF GMBH & CO. KG, priority 2021, published 2024).

Legend:
VEGF [1] = test: Q-PCR, VEGF mRNA expression in HaCaT cell lysates; assay type: cell-based, human; settings: all caffeine concentrations; 24 hours; Experiments 1 and 2
Method: (§1) For Q-PCR: Determination of VEGF, HGF and EGF mRNA expression in cell lysates • 2. For ELISA: Determination of VEGF, HGF and EGF protein synthesis/secretion into the culture medium
(§2) The initial cell count was • 1. for Q-PCR: 140,000 cells/well in 1500 μl culture medium • 2. for ELISA: 140,000 cells/well in 1.500 μl culture medium.
(§3) The trial duration for • 1. Q-PCR was 24 hours (single treatment at time 0 h) • 2. ELISA was 48 hours (double treatment at time 0 h and 24 h without changing the medium).
(§4) The study was carried out • 1. for Q-PCR by determining VEGF mRNA expression in cell lysates • 2. for ELISA by determining VEGF protein synthesis/secretion in the culture medium.

GM-CSF [2] = test: Q-PCR, experiments regarding GM-CSF in HaCaT; assay type: cell-based, human; settings: all tested caffeine concentrations; 24 h; Experiments 1 and 2
Method: as §1, §2, §3

HGF [3] = test: Q-PCR, HGF mRNA expression in HaCaT cell lysates; assay type: cell-based, human; settings: both experiments
Method: as §1, §2, §3

[4] = system: human epidermal HaCaT keratinocytes; test: colourimetric MTT viability study
Method: To investigate the effect of caffeine on the biological functions of human epidermal HaCaT keratinocytes, cell experiments were performed on human epidermal HaCaT keratinocytes, wherein the following studies were carried out: • 1. P13-A biological assay 1 with two independent studies • 2. P13-B biological assay 2 with two independent studies.
The initial cell count was 5000 cells/well in 100 μl culture medium.
The culture medium was HaCaT medium (DMEM with the addition of 10% FBS, 1% penicillin-streptomycin, 0.5% fungizone).
The treatment groups were as follows: • 1. Control group (CTRL) • 2. 0.00005% caffeine • 3. 0.0001% caffeine • 4. 0.0005% caffeine • 5. 0.001% caffeine • 6. 0.005% caffeine
The trial durations were 24, 48 and 72 hours.
The study took the form of a colourimetric MTT study.

[5] = system: human epidermal HaCaT keratinocytes; test: fluorometric CyQUANT cell proliferation study (DNA content); assay type: cell-based; settings: 0.00005, 0.0005, 0.005% caffeine; 24, 48 or 72 hours; best effects after 72 hours
Method: To investigate the effect of caffeine on cell proliferation of human epidermal HaCaT keratinocytes, human HaCaT keratinocytes were subjected to a CyQUANT viability assay, wherein the following series of experiments were performed: • 1. P22 Experiment 1 (biological assay 1) • 2. P24 Experiment 2 (biological assay 2).
The trial durations were 24, 48 or 72 hours.
The study was carried out by fluorometric CyQUANT study, wherein the DNA content was measured, reflecting cell proliferation.

TGFβ2 = test: Q-PCR, TGFβ2 mRNA expression in HaCaT; assay type: cell-based, human
TGFβ1 [6] = test: Q-PCR, TGFβ1 mRNA expression in HaCaT; assay type: cell-based, human; settings: all tested caffeine concentrations; 24 h; Experiments 1 and 2
VEGF [7] = test: ELISA, VEGF protein synthesis/secretion into the culture medium of HaCaT; assay type: cell-based, human; settings: 48 hours
Method: as §1, §2, §3, §4

TGFβ1 [8] = test: ELISA, TGFβ1-specific protein in HaCaT; assay type: cell-based, human; settings: 48 h; both experiments
HGF [9] = test: ELISA, HGF protein synthesis/secretion in HaCaT; assay type: cell-based, human; settings: both experiments
Method: as §1, §2, §3

TNFα [10] = test: Q-PCR, TNFα-specific mRNA in HaCaT; assay type: cell-based, human; settings: both experiments
GM-CSF [11] = test: ELISA, experiments regarding GM-CSF in HaCaT; assay type: cell-based, human; settings: 48 h
Method: as §1, §2, §3

TNFα [12] = test: ELISA, TNFα-specific protein in HaCaT; assay type: cell-based, human; settings: both experiments
[13] = 0.0005% caffeine, both experiments

Cn1c(=O)c2c(ncn2C)n(C)c1=O [caffeine]
mRNA expression of VEGF compared to the control group (VEGF [1]): appear to increase mRNA expression of VEGF
mRNA expression of VEGF compared to the control group (under experiments regarding GM-CSF) (GM-CSF [2]): apparently increased the mRNA expression of VEGF
expression of HGF-specific mRNA (HGF [3]): below the detection limit
cytotoxicity ([4]; 0.00005-0.005% caffeine, 24, 48 and 72 hours): none of the concentrations tested showed cytotoxicity
number of viable cells ([4]; certain concentrations of caffeine): increased the number of viable cells
cell proliferation (DNA content) [5]: appears to promote cell proliferation
mRNA expression of TGFβ2 (TGFβ2; certain caffeine concentrations, 24 h, Experiment 2): apparently increase mRNA expression of TGFβ2
synthesis/production/secretion of TGFβ2 (overall conclusion) (TGFβ2; despite contradictory results in the two Q-PCR experiments): most likely does not alter
mRNA expression of TGFβ1 (TGFβ1 [6]): None of the tested caffeine concentrations changed the mRNA expression of TGFβ1
VEGF protein production/secretion compared to the control group (VEGF [7]; [13]): increases VEGF protein production/secretion
VEGF protein production/secretion compared to the control group (VEGF [7]; 0.005% caffeine, Experiment 2): also showed an effect
level of TGFβ1-specific protein (TGFβ1 [8]): below the detection limit
expression of HGF-specific protein (HGF [9]): below the detection limit
expression of TNFα-specific mRNA (TNFα [10]): below the detection limit
VEGF protein production/secretion compared to the control group (under experiments regarding GM-CSF) (GM-CSF [11]; 0j.005% caffeine, Experiment 2): also showed an effect
VEGF protein production/secretion compared to the control group (under experiments regarding GM-CSF) (GM-CSF [11]; [13]): increased VEGF protein production/secretion
expression of TNFα-specific protein (TNFα [12]): below the detection limit
